molecular target: human DHODH (Homo sapiens, UniProt Q02127); assay: Inhibition of human DHODH activity assay (DCIP chromogen reduction); type: biochemical; conditions: enzyme extracts, 10 min at room temperature, absorbance at 600 nm, duplicate; read-out: hDHODH IC50
Method: DHODH activity and its inhibition were studied using a chromogen reduction assay with DCIP (2,6-dichlorophenol-indophenol).
Enzyme extracts (8 μl, ˜1.5 μg of human protein) were incubated in 96-well plates. The assay mixture (200 μl) contained 200 μM CoQD, 100 μM L-DHO, 120 μM DCIP in the assay buffer (100 mM HEPES pH 8.0, 150 mM NaCl, 10% Glicerol, 0.05% Triton X-100) and 2 μl of test compound. The compounds were dissolved in DMSO at a stock concentration of 1 mM, and tested at different concentrations varying from 10 μM to 1 pM to calculate an IC50 (concentration of inhibitor required for 50% of inhibition).
The reaction was initiated by adding the enzyme and then incubated for 10 min at room temperature before measuring DCIP reduction by counting a decrease in absorbance at 600 nm using standard instrumentation (Spectramax).
All reactions were carried out in duplicate and graphs, determining IC50 values for each compound, were plotted using the ABase software.

Chain of human DHODH (Q02127 whole entry): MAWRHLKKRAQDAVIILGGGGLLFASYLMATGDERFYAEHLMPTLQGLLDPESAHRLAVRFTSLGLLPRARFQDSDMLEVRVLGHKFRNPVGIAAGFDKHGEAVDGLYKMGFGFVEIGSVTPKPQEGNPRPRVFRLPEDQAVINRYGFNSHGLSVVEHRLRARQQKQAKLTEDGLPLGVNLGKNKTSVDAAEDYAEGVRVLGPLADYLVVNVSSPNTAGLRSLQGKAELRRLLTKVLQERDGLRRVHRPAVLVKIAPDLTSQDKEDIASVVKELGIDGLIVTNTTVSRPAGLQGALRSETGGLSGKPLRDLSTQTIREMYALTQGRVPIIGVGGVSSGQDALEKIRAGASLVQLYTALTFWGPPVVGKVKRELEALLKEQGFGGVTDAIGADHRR

SMILES	IC50 [µM]
Cc1ccc(Nc2ccc(-c3cc(OC(C)C)ccc3F)nc2)c(C(=O)O)c1 [Compound 66, 2-(6-(2-Fluoro-5-isopropoxyphenyl)pyridin-3-ylamino)-5-methylbenzoic acid]	0.028
O=C(O)c1cc(C2CC2)ccc1Nc1cnc(-c2cc(F)ccc2F)nc1 [Compound 131, 2-(2-(2,5-difluorophenyl)pyrimidin-5-ylamino)-5-cyclopropylbenzoic acid]	0.038
Cc1ccc(Nc2ccc(-c3ccncc3Cl)nc2)c(C(=O)O)c1 [Compound 34, 2-(3′-chloro-2,4′-bipyridin-5-ylamino)-5-methylbenzoic acid]	0.109
CCOc1cccc(-c2ncc(Nc3ccc(C)cc3C(=O)O)cc2C)c1 [Compound 42, 2-(6-(3-Ethoxyphenyl)-5-methylpyridin-3-ylamino)-5-methylbenzoic acid]	0.03
O=C(O)c1cc(C2CC2)ccc1Nc1cnc(-c2ccccc2C2CC2)nc1 [Compound 14, 5-Cyclopropyl-2-(2-(2-cyclopropylphenyl)pyrimidin-5-ylamino)benzoic acid]	0.057
CCOc1cccc(-c2ccc(Nc3ccc(C)cc3C(=O)O)cn2)c1 [Compound 41, 2-(6-(3-Ethoxyphenyl)pyridin-3-ylamino)-5-methylbenzoic acid]	0.19
Cc1ccc(Nc2cnc(N3CCCCCC3)c(C)c2)c(C(=O)O)c1 [Compound 31, 2-(6-(Azepan-1-yl)-5-methylpyridin-3-ylamino)-5-methylbenzoic acid]	0.119
Cc1ccc(Nc2ccc(-c3ccc(F)cc3F)nc2)c(C(=O)O)c1 [Compound 141, 2-(6-(2,4-difluorophenyl)pyridin-3-ylamino)-5-methylbenzoic acid]	0.146
O=C(O)c1cc(C2CC2)ccc1Nc1cnc(C2CC2)c(-c2ccccc2)c1 [Compound 25, 5-cyclopropyl-2-(6-cyclopropyl-5-phenylpyridin-3-ylamino)benzoic acid]	0.028
Cc1ccc(Nc2cnc(-c3cccc(C(=O)N(C)C)c3)c(C)c2)c(C(=O)O)c1 [Compound 79, 2-(6-(3-(Dimethylcarbamoyl)phenyl)-5-methylpyridin-3-ylamino)-5-methylbenzoic acid]	0.033

The next compounds have a lower IC50 than those just listed; values first:

IC50 [µM]	SMILES
0.021	O=C(O)c1cc(C2CC2)ccc1Nc1cnc(-c2cc(OC(F)(F)F)ccc2F)nc1 [Compound 135, 2-(2-(2-fluoro-5-trifluoromethoxyphenyl)pyrimidin-5-ylamino)-5-cyclopropylbenzoic acid]
0.018	Cc1ccc(Nc2cnc(-c3ccccc3)c(F)c2)c(C(=O)O)c1 [Compound 8, 2-(5-Fluoro-6-phenylpyridin-3-ylamino)-5-methylbenzoic acid]
0.012	COc1cccc(-c2ncc(Nc3ccc(C)cc3C(=O)O)cc2C(F)(F)F)c1 [Compound 77, 2-(6-(3-Methoxyphenyl)-5-(trifluoromethyl)pyridin-3-ylamino)-5-methylbenzoic acid]
0.01	O=C(O)c1cc(C2CC2)ccc1Nc1cnc(-c2ccccc2)c(-c2ccccc2)c1 [Compound 19, 5-Cyclopropyl-2-(5,6-diphenylpyridin-3-ylamino)benzoic acid]
0.009	Cc1ccc(Nc2cnc(-c3cccc(C(=O)N4CCCC4)c3)c(C)c2)c(C(=O)O)c1 [Compound 125, 5-Methyl-2-(5-methyl-6-(3-(pyrrolidine-1-carbonyl)phenyl)pyridin-3-ylamino)benzoic acid]
0.005	Cc1cc(Nc2ccc(C3CC3)cc2C(=O)O)cnc1-c1cccc(OC(F)(F)F)c1 [Compound 89, 5-Cyclopropyl-2-(5-methyl-6-(3-(trifluoromethoxy)phenyl)pyridin-3-ylamino)benzoic acid]
0.004	O=C(O)c1cc(C2CC2)ccc1Nc1ccc(-c2ccccc2Cl)nc1 [Compound 112, 2-(6-(2-Chlorophenyl)pyridin-3-ylamino)-5-cyclopropylbenzoic acid]
0.002	O=C(O)c1cc(C2CC2)ccc1Nc1cnc(-c2ccccc2)c(C(F)(F)F)c1 [Compound 105, 5-Cyclopropyl-2-(6-phenyl-5-(trifluoromethyl)pyridin-3-ylamino)benzoic acid]

Reference: US20110280831A1, “COMBINATIONS COMPRISING METHOTREXATE AND DHODH INHIBITORS” (priority 2009, published 2011)
